In publication PMC10819243 (Pharmaceutics, 2024):
Read-outs that look alike come from different tables or passages of the source.

Assays:
MCF-7 = experiment: MTT assay, MCF-7; assay type: cell-based; conditions: for IC50: Homo sapiens, MCF7, MTT assay, MCF-7 breast carcinoma, (±s) standard deviation; for Selectivity Index MCF-7: IC50 for normal cell line (HDF)/IC50 for MCF-7
HeLa = experiment: MTT assay, HeLa; assay type: cell-based; conditions: for IC50: Homo sapiens, MTT assay, HeLa cervix carcinoma, (±s) standard deviation; for Selectivity Index HeLa: IC50 for normal cell line (HDF)/IC50 for HeLa
[1] = system: HDF (normal fibroblast cell line); experiment: MTT assay, HDF; assay type: cell-based, human; conditions: MTT assay, HDF normal fibroblast cell line, (±s) standard deviation
A-549 = experiment: MTT assay, A-549; assay type: cell-based; conditions: for IC50: Homo sapiens, A549, MTT assay, A-549 lung carcinoma, (±s) standard deviation; for Selectivity Index A-549: IC50 for normal cell line (HDF)/IC50 for A-549
KB = experiment: MTT assay, KB; assay type: cell-based; conditions: for IC50: Homo sapiens, MTT assay, KB nasopharynx carcinoma, (±s) standard deviation; for Selectivity Index KB: IC50 for normal cell line (HDF)/IC50 for KB
[2] = system: HeLa, KB, MCF-7, A-549 and HDF cell lines; experiment: MTT assay, statements over several tested cell lines; assay type: cell-based; conditions: for times less active than mother OA (1): over the tested cell lines
[3] = ratio of IC50 values vs oleanolic acid (1)
[4] = one approximate value or range for the four cancer cell lines, apart from HDF, read-out: IC50 for HeLa, KB, MCF-7, and A-549 cancer cell lines
[5] = summary over the tested cell lines, read-out: IC50 values for the tested cell lines (range or summary)

Compound | IC50 (MCF-7) [µM] | Selectivity Index MCF-7 (MCF-7) | fold as active as OA (1), MCF-7 (MCF-7; [3]) | IC50 (HeLa) [µM] | Selectivity Index HeLa (HeLa) | IC50 ([1]; Homo sapiens, Fibroblast) [µM] | IC50 (A-549) [µM] | Selectivity Index A-549 (A-549) | IC50 (KB) [µM] | Selectivity Index KB (KB) | fold as active as OA (1), KB (KB; [3]) | IC50 [1] [µM] | IC50 [2, 4] [µM] | IC50 values for the tested cell lines (range or summary) ([2]; summary over the tested cell lines) | IC50 [2, 5] [µM] | times less active than mother OA (1) [2]
COC(=O)[C@]12CCC(C)(C)CC1C1=CCC3[C@@]4(C)CC/C(=N\OC(C)=O)C(C)(C)C4CC[C@@]3(C)[C@]1(C)CC2 (stereo partly shown) [Compound 5a, 3-Acetoxyiminoolean-12-en-28-oic acid methyl ester] | 10.5 | 2.76 | about 1.3 fold | 11.1 | 2.62 | 29 | 10.6 | 2.74 | 11.4 | 2.55 | about 1.3 fold | – | – | – | – | –
COC(=O)[C@]12CCC(C)(C)CC1C1=CC(=O)C3[C@@]4(C)CC/C(=N\OC(C)=O)C(C)(C)C4CC[C@@]3(C)[C@]1(C)CC2 (stereo partly shown) [Compound 6a, 3-Acetoxyimino-11-oxoolean-12-en-28-oic acid methyl ester] | 28 | 1.75 | – | 27.4 | 1.79 | ~49 | 28.2 | 1.74 | 27.9 | 1.76 | – | 49.1 | ~28 | – | – | –
CC1(C)CC[C@]2(C(=O)N3CCOCC3)CC[C@]3(C)C(=CCC4[C@@]5(C)CC/C(=N\OC(=O)c6cccc([N+](=O)[O-])c6)C(C)(C)C5CC[C@]43C)C2C1 (stereo partly shown) [Compound 7e, 3-(3′-Nitro)benzoxyiminoolean-12-en-28-oic acid morpholide] | 10.2 | 2.75 | – | 12.1 | 2.32 | 28 | 13.8 | 2.03 | 13.9 | 2.02 | – | – | – | comparable to those of OA (1) | – | –
CC1(C)CC[C@]2(C(=O)N3CCOCC3)CC[C@]3(C)C(=CCC4[C@@]5(C)CC/C(=N\OC(=O)c6ccccc6)C(C)(C)C5CC[C@]43C)C2C1 (stereo partly shown) [Compound 7d, 3-Benzoxyiminoolean-12-en-28-oic acid morpholide] | 41.7 | 1.58 | – | 45.3 | 1.46 | 66.2 | 46.8 | 1.41 | 45.9 | 1.44 | – | – | – | – | 40 to 66 | –
COC(=O)[C@]12CCC(C)(C)CC1C1=CCC3[C@@]4(C)CC/C(=N\OC(=O)c5ccc([N+](=O)[O-])cc5)C(C)(C)C4CC[C@@]3(C)[C@]1(C)CC2 (stereo partly shown) [Compound 5f, 3-(4′-Nitro)benzoxyiminoolean-12-en-28-oic acid methyl ester] | 61.4 | 2.15 | – | 62 | 2.13 | 132 | 69.9 | 1.89 | 60.7 | 2.18 | – | – | – | – | 60.7 to 132 | –
CCC(=O)O/N=C1\CC[C@@]2(C)C(CC[C@]3(C)C2CC=C2C4CC(C)(C)CC[C@]4(C(=O)N4CCOCC4)CC[C@]23C)C1(C)C (stereo partly shown) [Compound 7c, 3-Propionoxyimino-olean-12-en-28-oic acid morpholide] | 153 | 1.17 | – | 143 | 1.27 | 179 | 148 | 1.21 | 150 | 1.20 | – | – | – | – | 140 to 180 | –
COC(=O)[C@]12CCC(C)(C)CC1C1=CCC3[C@@]4(C)CC/C(=N\OC(=O)CCl)C(C)(C)C4CC[C@@]3(C)[C@]1(C)CC2 (stereo partly shown) [Compound 5b, 3-Chloroacetoxyiminoolean-12-en-28-oic acid methyl ester] | 18 | 2.05 | – | 19.8 | 1.87 | 37 | 19.8 | 1.87 | 18.4 | 2.01 | – | – | – | – | – | 1.7–2.2 fold
COC(=O)[C@]12CCC(C)(C)CC1C1=CC(=O)C3[C@@]4(C)CC/C(=N\OC(=O)CCl)C(C)(C)C4CC[C@@]3(C)[C@]1(C)CC2 (stereo partly shown) [Compound 6b, 3-Chloroacetoxyimino-11-oxoolean12-en-28-oic acid methyl ester] | 64.1 | 1.37 | – | 61 | 1.44 | 88 | 61.8 | 1.42 | 61 | 1.44 | – | – | 61 to 64 | – | – | –
CC(=O)O/N=C1\CC[C@@]2(C)C(CC[C@]3(C)C2CC=C2C4CC(C)(C)CC[C@]4(C(=O)N4CCOCC4)CC[C@]23C)C1(C)C (stereo partly shown) [Compound 7a, 3-Acetoxyiminoolean-12-en-28-oic acid morpholide] | 81 | 1.43 | – | 82.2 | 1.41 | 116 | 84.9 | 1.37 | 81.5 | 1.42 | – | – | – | – | ≥ 80 | about 8 fold
CC1(C)CC[C@]2(C(=O)O)CC[C@]3(C)C(=CC[C@@H]4[C@@]5(C)CC[C@H](O)C(C)(C)[C@@H]5CC[C@]43C)[C@@H]2C1 [Compound 1, oleanolic acid, reference compound] | – | – | – | – | – | 17.9 | – | – | – | – | – | – | – | – | – | –
COC(=O)C12CCC(C)(C)CC1C1=CCC3C4(C)CCC(=NO)C(C)(C)C4CCC3(C)C1(C)CC2 (stereo not shown) [Compound 2, methyl oleanonate oxime] | – | 1.38 | – | – | 1.60 | 21.1 | 13 | 1.62 | – | 1.70 | – | – | – | – | – | –
CCC(=O)O/N=C1\CC[C@@]2(C)C(CC[C@]3(C)C2CC=C2C4CC(C)(C)CC[C@]4(C(=O)OC)CC[C@]23C)C1(C)C (stereo partly shown) [Compound 5c, 3-Propionoxyiminoolean-12-en-28-oic acid methyl ester] | 38.1 | 1.05 | – | 38.1 | 1.05 | 39.9 | 36.2 | 1.10 | 38.8 | 1.03 | – | – | – | – | – | 2.2–4.1 fold
CCC(=O)O/N=C1\CC[C@@]2(C)C(CC[C@]3(C)C2C(=O)C=C2C4CC(C)(C)CC[C@]4(C(=O)OC)CC[C@]23C)C1(C)C (stereo partly shown) [Compound 6c, 3-Propionoxyimino-11-oxoolean-12-en-28-oic acid methyl ester] | 23 | 2.13 | – | 24 | 2.04 | ~50 | 24.2 | 2.03 | 24.8 | 1.97 | – | 49 | ~24 | – | – | –
COC(=O)[C@]12CCC(C)(C)CC1C1=CC(=O)C3[C@@]4(C)CC/C(=N\OC(=O)c5ccc([N+](=O)[O-])cc5)C(C)(C)C4CC[C@@]3(C)[C@]1(C)CC2 (stereo partly shown) [Compound 6f, 3-(4′-Nitro)benzoxyimino-11-oxoolean-12-en-28-oic acid methyl ester] | 26 | 1.43 | – | 28.3 | 1.31 | 37.2 | 28.1 | 1.32 | 26.3 | 1.41 | – | – | – | – | – | –
